Assay results as given in paper PMC10374545, “A small molecule inhibitor of PTP1B and PTPN2 enhances T cell anti-tumor immunity” (Nature Communications, 2023).
Where “and” joins values, the source holds several entries; their conditions need not be identical. Identical values can stand only once.

Columns and labels:
[1] = system: NK cells; assay: NK cell proliferation (CFSE dilution); assay type: cell-based, mouse; conditions: IL-15, 96 h; 0.1 or 1 (µM in figure, µg/ml in legend)
Experimental: proliferation in vitro. a-b) NK cells from C57BL/6 male mice (n=3 per group) were expanded […]
µg/ml) or vehicle (1% v/v DMSO) in the absence of IL-15. a) NK cells were re-stimulated for 15 min with the indicated amounts of IL-15 and Y694 phosphorylated STAT-5 (p-STAT-5) mean fluorescence intensities (MFIs) determined by flow cytometry. b) Alternatively, NK cells were stained with carboxyfluorescein succinimidyl ester (CFSE, Invitrogen) and then re-stimulated with the indicated amounts of IL-15 for 96 h and NK cell proliferation (CFSE dilution) monitored by flow cytometry. c-d) NK cells from C57BL/6 male mice (n=3 per group) were expanded ex vivo in the presence of IL-15 and then pre-treated with CMP-182 (0.1 or 1 µg/ml) or vehicle in the absence of IL-15. NK cells were re-stimulated with either IL-12 (10 ng/ml) or IL-18 (100 ng/ml) or with α-NK1.1 or α-Ly49H for 4 h. NK cells were maintained in 10 ng/ml IL-15 throughout the 4 h incubation time. Percentages of c) IFN-γ+ and d) CD107A+ NK cells were determined by flow cytometry. In (a-d) results shown are means ± SEM and are representative of at least two independent experiments.

[2] = system: p-STAT-1 and CD3 in AT3 tumors; assay: Immunohistochemistry for p-STAT-1 (Y701) and CD3 in AT3 tumors; assay type: in vivo, mouse; conditions: 10 mg/kg i.v.
Experimental: For the immunohistochemistry analysis of mammary tumor samples, samples were dissected and fixed in 10% formalin. After fixation, the tissues were embedded in paraffin and sectioned onto microscopic glass slides at 4 μm thickness per section. After deparaffinization and rehydration, the slides were subjected to antigen retrieval in Tris/EDTA buffer (pH 8.0) at 120 °C for 10 min and then cooled down to room temperature. The slides were blocked with 5% (v/v) normal goat serum (NGS) containing 0.1% (v/v) TritonX-100 in PBS for 1 h at room temperature and then incubated with primary antibody p-STAT-1 (Tyr701) (1:500; Cell Signaling Technology), or CD3ε (1:1000; Dako) at room temperature for 1 h. Slides were then washed with PBS containing 0.05% (w/v) Tween-20 and visualized using a rabbit IgG VECTORSTAIN ABC Elite and DAB (3,3′‐diaminobenzidine) Peroxidase Substrate Kit (Vector Laboratories, UK) and counterstained with haematoxylin. Slides were imaged on an Olympus CX43 microscope (Olympus, Tokyo, Japan).

[3] = system: AT3 mammary tumors; assay: AT3 mammary tumor growth in C57BL/6 mice; assay type: in vivo, mouse
Experimental: Male or female mice were injected subcutaneously with 5 × 10^5 MC38 tumor cells resuspended in 100 μl D-PBS into the flank. Alternatively, female mice were injected orthotopically with 5 × 10^5 AT3 or AT3-OVA or PTPN2-deleted AT3 or AT3-OVA tumor cells resuspended in 20 μl D-PBS into the fourth mammary fat pad. Tumor sizes were measured in two dimensions (mm^2) using electronic callipers two to three times per week as soon as tumors were palpable (20–25 mm^2).

[4] = molecular target: T1, PTPN2 (Homo sapiens, UniProt P17706); assay: Mode of inhibition and Ki, Lineweaver-Burk kinetic analysis with DiFMUP; assay type: biochemical
T1 construct: PTPN2, residues 1-387; made in house; host or cells: E. coli BL21(DE3)
T1 sequence (P17706 1-387 isoform P17706-2): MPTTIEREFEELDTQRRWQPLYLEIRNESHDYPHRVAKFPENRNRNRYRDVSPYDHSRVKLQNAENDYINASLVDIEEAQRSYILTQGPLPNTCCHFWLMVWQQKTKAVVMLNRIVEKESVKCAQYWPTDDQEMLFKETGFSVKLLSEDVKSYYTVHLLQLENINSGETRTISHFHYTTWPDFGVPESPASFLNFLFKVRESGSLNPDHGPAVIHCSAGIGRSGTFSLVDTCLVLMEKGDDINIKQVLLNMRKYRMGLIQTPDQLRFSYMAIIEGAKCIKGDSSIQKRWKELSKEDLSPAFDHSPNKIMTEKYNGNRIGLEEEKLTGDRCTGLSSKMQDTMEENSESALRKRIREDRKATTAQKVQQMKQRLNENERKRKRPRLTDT
Experimental: To determine the mode of inhibition, the reactions were initiated by the addition of enzyme (final concentration for PTP1B and PTPN2 was 0.05 nM) to the reaction mixtures (0.2 ml) containing various concentrations of DiFMUP with different concentrations of the inhibitor. The reaction was allowed to proceed for 10 min and then quenched by the addition of 40 µl of a 160 µM solution of bpV(Phen) (Sigma-Aldrich, cat# SML0889). The fluorescence signal was measured using a CLARIOstar Plus Microplate Spectrophotometer (BMG Labtech) using excitation and emission wavelength of 340 nm and 450 nm, respectively. Data were fitted using Prism GraphPad 9.2.0. For selectivity studies, the inhibition assay for other PTPs were performed under the same conditions as used for PTP1B and PTPN2 except with different DiFMUP concentration corresponding to the Km of the PTP studied.

CC(C)(O)CCOc1ccc2cc(O)c(N3CC(=O)NS3(=O)=O)c(F)c2c1 [Compound 182, 5-(1-Fluoro-3-hydroxy-7-(3-hydroxy-3-methylbutoxy)naphthalen-2-yl)−1,2,5-thiadiazolidin-3-one 1,1-dioxide]
NK cell proliferation [1]: did not enhance | tumor p-STAT-1 and CD3+ T cell infiltrates in AT3 tumors of Lck-Cre;Ptpn2fl/fl mice [2]: enhanced promotion | Tumour weights AT-3, individual mice ([3]; 10 mg, Figure 4D, listed as CMP-182, in mg (unit assumed)): 433 and 615 and 255 and 610 and 642 and 344 | Tumour growth AT-3, individual mice ([3]; 10 mg, day 10 post injection, listed as CMP-182, in mm2): 18.92 and 38.28 and 21.93 and 30.78 and 35.75 and 25.97 | Tumour growth AT-3, individual mice ([3]; 10 mg, day 13 post injection, listed as CMP-182, in mm2): 24.01 and 35.1 and 25.44 and 30.24 and 37.12 and 27.5 | Tumour growth AT-3, individual mice ([3]; 10 mg, day 16 post injection, listed as CMP-182, in mm2): 28.5 and 42.21 and 23.76 and 29.58 and 41.04 and 36.4 | Tumour growth AT-3, individual mice ([3]; 10 mg, day 19 post injection, listed as CMP-182, in mm2): 40.71 and 52.8 and 61.32 and 46.5 and 44.4 and 42.9 | Tumour growth AT-3, individual mice ([3]; 10 mg, day 22 post injection, listed as CMP-182, in mm2): 40.95 and 59.13 and 71.25 and 50.16 and 54.4 and 49.4 | Tumour growth AT-3, individual mice ([3]; 10 mg, day 25 post injection, listed as CMP-182, in mm2): 70.31 and 63.7 and 89.04 and 67.08 and 73.15 and 57.67 | Tumour growth AT-3, individual mice ([3]; 10 mg, day 27 post injection, listed as CMP-182, in mm2): 77.08 and 74.4 and 63 and 65.86 and 98.28 and 55.44 | growth of orthotopic AT3 mammary tumors ([3]; 10 mg/kg i.v. every 2 days): repressed the growth | Tumour weights, median ([3]; AT-3 tumours, CMP-182 10 mg, n=6, Figure 4D): 521.5, n=6 | Tumour size, predicted column mean over all time points ([3]; AT-3 tumours, CMP-182 10 mg, n=6, Figure 4D, in mm2): 48.13 | Tumour size, Mean 2 ([3]; AT-3 tumours, CMP-182 10 mg, n=6, time point 10, Figure 4D, in mm2): 28.61 | Tumour size, Mean 2 ([3]; AT-3 tumours, CMP-182 10 mg, n=6, time point 13, Figure 4D, in mm2): 29.9 | Tumour size, Mean 2 ([3]; AT-3 tumours, CMP-182 10 mg, n=6, time point 16, Figure 4D, in mm2): 33.58 | Tumour size, Mean 2 ([3]; AT-3 tumours, CMP-182 10 mg, n=6, time point 19, Figure 4D, in mm2): 48.11 | Tumour size, Mean 2 ([3]; AT-3 tumours, CMP-182 10 mg, n=6, time point 22, Figure 4D, in mm2): 54.22 | Tumour size, Mean 2 ([3]; AT-3 tumours, CMP-182 10 mg, n=6, time point 25, Figure 4D, in mm2): 70.16 | Tumour size, Mean 2 ([3]; AT-3 tumours, CMP-182 10 mg, n=6, time point 27, Figure 4D, in mm2): 72.34 | mode of inhibition ([4]; Lineweaver-Burk): classic competitive inhibitor | Ki ([4]; varying inhibitor and DiFMUP, steady state): 0.26 ± 0.02 nM
